# Measured values: the supplement of paper PMC11061612
# How the values were obtained:
# Experiment in all cases: combination Emax (second highest fraction inhibited in the dose matrix, 72 h); higher = more inhibition; extreme values may be limits of the assay
# [1] = tested on: COR-L23 (Non-Small Cell Lung Carcinoma)
# Summary of the method: (§1)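 Bliss excess equals the observed combination effect minus the expected value EA + EB − EA·EB, where EA and EB are the effects of each agent alone. Combination Emax is the second-highest inhibition within the matrix. Inhibition was scaled from CellTiter-Glo 2.0 luminescence, with 0 set by vehicle wells and 1 by blank wells, after 72 hours of two-drug dosing of cells plated in 1536-well plates.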
# [2] = tested on: NCI-H1781 (Lung Adenocarcinoma)
# Summary of the method: as §1
# [3] = tested on: HPAC (Pancreatic Carcinoma)
# Summary of the method: as §1
# [4] = tested on: NCI-H1694 (Small Cell Lung Carcinoma)
# Summary of the method: as §1
# SN12C (Kidney Carcinoma) = tested on: SN12C (Kidney Carcinoma)
# Summary of the method: as §1
# [5] = tested on: DOV13 (Ovarian Carcinoma)
# Summary of the method: as §1
# [6] = tested on: DMS-273 (Small Cell Lung Carcinoma)
# Summary of the method: as §1
# [7] = tested on: MDA-MB-157 (Breast Carcinoma)
# Summary of the method: as §1
# [8] = tested on: OCI-AML2 (Acute Myeloid Leukemia)
# Summary of the method: as §1
# [9] = tested on: MDA-MB-231 (Breast Carcinoma)
# Summary of the method: as §1
# [10] = tested on: TGBC24TKB (Biliary Tract Carcinoma)
# Summary of the method: as §1
# [11] = tested on: CTV-1 (T-Lymphoblastic Leukemia)
# Summary of the method: as §1
# [12] = tested on: HT-29 (Colorectal Carcinoma)
# Summary of the method: as §1
# [13] = tested on: KM-H2 (Hodgkin's Lymphoma)
# Summary of the method: as §1
# [14] = tested on: U-266 (Plasma Cell Myeloma)
# Summary of the method: as §1
# [15] = tested on: SNU-C5 (Colorectal Carcinoma)
# Summary of the method: as §1
# [16] = tested on: TE-5 (Esophageal Squamous Cell Carcinoma)
# Summary of the method: as §1
# NCI-H2595 (Mesothelioma) = tested on: NCI-H2595 (Mesothelioma)
# Summary of the method: as §1
# [17] = tested on: COR-L95 (Small Cell Lung Carcinoma)
# Summary of the method: as §1
# [18] = tested on: SW780 (Bladder Carcinoma)
# Summary of the method: as §1
SMILES,combination Emax [1],combination Emax [2],combination Emax [3],combination Emax [4],combination Emax (SN12C (Kidney Carcinoma)),combination Emax [5],combination Emax [6],combination Emax [7],combination Emax [8],combination Emax [9],combination Emax [10],combination Emax [11],combination Emax [12],combination Emax [13],combination Emax [14],combination Emax [15],combination Emax [16],combination Emax (NCI-H2595 (Mesothelioma)),combination Emax [17],combination Emax [18]
"Cc1c2c(nn1C)CSCc1cc(n(C)n1)CSc1cc(c3ccccc3c1)OCCCc1c(C(=O)O)n(C)c3c-2c(Cl)ccc13 [AZD5991] + Cn1cnc2c(F)c(Nc3ccc(Br)cc3Cl)c(C(=O)NOCCO)cc21 [Selumetinib] (first compound max 1 µM, 7x7, partner max 3 µM)",0.31,0.492,0.673,0.986,0.246,0.252,0.987,0.641,1,0.4,0.418,0.187,0.706,0.191,0.985,0.456,0.287,0.283,0.306,0.333
"Cn1cnc2c(F)c(Nc3ccc(Br)cc3Cl)c(C(=O)NOCCO)cc21 [Selumetinib] + C[C@@H]1COCCN1C2=NC(=NC(=C2)C3(CC3)[S@](=N)(=O)C)C4=C5C=CNC5=NC=C4 [AZD6738] (first compound max 10 µM, 7x7, partner max 10 µM)",0.615,0.396,0.735,0.728,0.192,0.763,0.811,0.92,1,0.718,0.703,0.906,0.862,0.751,0.717,0.789,0.464,0.165,0.535,0.381
"C=CCn1c(=O)c2cnc(Nc3ccc(N4CCN(C)CC4)cc3)nc2n1-c1cccc(C(C)(C)O)n1 [AZD1775] + C[C@@H]1COCCN1C2=NC(=NC(=C2)C3(CC3)[S@](=N)(=O)C)C4=C5C=CNC5=NC=C4 [AZD6738] (first compound max 1 µM, partner max 10 µM)",0.595,0.65,0.705,0.883,0.408,0.928,0.923,0.947,1,0.84,0.832,0.993,0.858,0.961,0.707,0.794,0.577,0.266,0.737,0.246
"COc1cccc2c1C(=O)c1c(O)c3c(c(O)c1C2=O)C[C@@](O)(C(=O)CO)C[C@@H]3O[C@H]1C[C@H](N)[C@H](O)[C@H](C)O1 [Doxorubicin] + Cc1cc2ncnn2cc1Nc1ncc2c(n1)n(C1CCOCC1)c(=O)n2C [AZD7648] (first compound max 1 µM, 7x7, partner max 10 µM)",0.432,0.932,0.633,0.921,0.642,0.914,0.866,0.805,1,0.786,0.318,1,0.657,0.791,0.612,0.724,0.678,0.531,0.865,0.235
"CC1(C)CCC(CN2CCN(c3ccc(C(=O)NS(=O)(=O)c4ccc(NCC5CCOCC5)c([N+](=O)[O-])c4)c(Oc4cnc5[nH]ccc5c4)c3)CC2)=C(c2ccc(Cl)cc2)C1 [Venetoclax] + Cc1cc2ncnn2cc1Nc1ncc2c(n1)n(C1CCOCC1)c(=O)n2C [AZD7648] (first compound max 1 µM, 7x7, partner max 10 µM)",0.164,0.329,0.288,0.223,0.218,0.476,0.482,0.571,1,0.356,0.332,0.362,0.205,0.161,0.511,0.261,0.284,0.228,0.607,0.163
"CC1(C)CCC(CN2CCN(c3ccc(C(=O)NS(=O)(=O)c4ccc(NCC5CCOCC5)c([N+](=O)[O-])c4)c(Oc4cnc5[nH]ccc5c4)c3)CC2)=C(c2ccc(Cl)cc2)C1 [Venetoclax] + Cn1cnc2c(F)c(Nc3ccc(Br)cc3Cl)c(C(=O)NOCCO)cc21 [Selumetinib] (first compound max 1 µM, 7x7, partner max 3 µM)",0.2,0.166,0.559,0.324,0.206,0.157,0.214,0.546,1,0.38,0.293,0.293,0.64,0.097,0.722,0.289,0.107,0.129,0.572,0.227
"CN(C)CCCOc1ccc(-c2ccc3ncc4c(c3c2)n(C2CCOCC2)c(=O)n4C)cn1 [AZD0156] + CCN(CCO)CCCOc1ccc2c(Nc3cc(CC(=O)Nc4cccc(F)c4)[nH]n3)ncnc2c1 [AZD2811] (first compound max 1 µM, 7x7, partner max 1 µM)",0.116,0.608,0.206,0.278,0.12,0.493,0.793,0.153,0.773,0.206,0.505,0.234,0.166,0.327,0.299,0.224,0.1,0.108,0.208,0.205
"COc1cc2c(cc1OCCCCCOc1cc3c(cc1OC)C(=O)N1C=C(C)C[C@H]1C=N3)N=C[C@@H]1CC(C)=CN1C2=O [SG3199] + O=C(c1cc(Cc2n[nH]c(=O)c3ccccc23)ccc1F)N1CCN(C(=O)C2CC2)CC1 [Olaparib] (first compound max 0.001 µM, 7x7, partner max 10 µM)",0.221,0.45,0.0597,0.112,0.172,0.249,0.308,0.0754,0.747,0.178,0.126,0.127,0.0781,0.264,0.179,0.147,0.0521,0.0944,0.431,0.128
"COc1cccc(OCCCN)c1-c1cc(Nc2cnc(C#N)cn2)n[nH]1 [Prexasertib] + C[C@@H]1COCCN1C2=NC(=NC(=C2)C3(CC3)[S@](=N)(=O)C)C4=C5C=CNC5=NC=C4 [AZD6738] (first compound max 1 µM, 7x7, partner max 10 µM)",0.685,0.486,0.769,0.823,0.313,0.945,0.916,0.949,1,0.705,0.918,0.948,0.857,0.92,0.65,0.894,0.548,0.141,0.675,0.201
"NC1(C(=O)N[C@@H](CCO)c2ccc(Cl)cc2)CCN(c2ncnc3[nH]ccc23)CC1 [Capivasertib] + CC(C)n1c(=O)n(C)c2cnc3cc(F)c(-c4ccc(OCCCN5CCCCC5)nc4)cc3c21 [AZD1390] (first compound max 10 µM, 7x7, partner max 0.3 µM)",0.37,0.485,0.252,0.223,0.205,0.462,0.71,0.25,0.586,0.334,0.25,0.547,0.345,0.222,0.139,0.416,0.303,0.279,0.164,0.176
"COc1cc2ncnc(Nc3ccc(F)c(Cl)c3)c2cc1OCCCN1CCOCC1 [Gefitinib] + CC(C)n1c(=O)n(C)c2cnc3cc(F)c(-c4ccc(OCCCN5CCCCC5)nc4)cc3c21 [AZD1390] (first compound max 10 µM, 7x7, partner max 0.3 µM)",0.0639,0.538,0.222,0.19,0.21,0.168,0.325,0.125,0.083,0.193,0.348,0.785,0.315,0.19,0.124,0.0876,0.15,0.129,0.261,0.14
"Cc1cc2ncnn2cc1Nc1ncc2c(n1)n(C1CCOCC1)c(=O)n2C [AZD7648] + CCN(CCO)CCCOc1ccc2c(Nc3cc(CC(=O)Nc4cccc(F)c4)[nH]n3)ncnc2c1 [AZD2811] (first compound max 10 µM, 7x7, partner max 1 µM)",0.0476,0.671,0.155,0.273,0.262,0.426,0.82,0.234,0.702,0.477,0.566,0.375,0.265,0.209,0.331,0.295,0.394,0.203,0.256,0.29
"Cc1nc(Nc2ncc(C(=O)Nc3c(C)cccc3Cl)s2)cc(N2CCN(CCO)CC2)n1 [Dasatinib] + CC(=O)Nc1cccc(-n2c(=O)n(C3CC3)c(=O)c3c(Nc4ccc(I)cc4F)n(C)c(=O)c(C)c32)c1 [Trametinib] (first compound max 2 µM, 7x7, partner max 1 µM)",0.85,0.34,0.893,0.111,0.455,0.814,0.323,0.234,1,0.832,0.736,1,0.981,0.234,0.832,0.571,0.322,0.265,0.128,0.625
